Values quoted from earlier work as cited in US20110212960A1, “NEW COMPOUNDS FOR THE TREATMENT OF CNS DISORDER” (BOEHRINGER INGELHEIM INTERNATIONAL GMBH, priority 2009, published 2011).

What was measured:
Murine PDE9A = biological target: T1, Murine PDE9A (Mus musculus, UniProt O70628); conditions: concentrations below 200 micromolar; cited from earlier work
T1 sequence (O70628 1-534): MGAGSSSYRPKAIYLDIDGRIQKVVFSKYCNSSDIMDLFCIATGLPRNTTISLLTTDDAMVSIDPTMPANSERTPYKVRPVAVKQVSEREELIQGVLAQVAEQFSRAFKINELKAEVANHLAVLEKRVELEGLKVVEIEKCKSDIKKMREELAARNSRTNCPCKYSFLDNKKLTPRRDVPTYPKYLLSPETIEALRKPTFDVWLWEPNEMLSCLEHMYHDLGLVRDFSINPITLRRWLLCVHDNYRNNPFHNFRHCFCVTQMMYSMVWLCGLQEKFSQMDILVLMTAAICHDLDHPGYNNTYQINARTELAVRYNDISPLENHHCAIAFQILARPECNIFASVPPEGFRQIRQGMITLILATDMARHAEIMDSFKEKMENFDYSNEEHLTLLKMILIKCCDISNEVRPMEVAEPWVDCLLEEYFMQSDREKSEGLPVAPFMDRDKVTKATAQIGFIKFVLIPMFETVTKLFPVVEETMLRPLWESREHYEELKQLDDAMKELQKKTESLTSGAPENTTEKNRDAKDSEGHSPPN

human PDE9A = human PDE9A (Homo sapiens, UniProt O76083); conditions: concentrations of up to 100 micromolar; cited from earlier work
Chain of human PDE9A (O76083 whole entry): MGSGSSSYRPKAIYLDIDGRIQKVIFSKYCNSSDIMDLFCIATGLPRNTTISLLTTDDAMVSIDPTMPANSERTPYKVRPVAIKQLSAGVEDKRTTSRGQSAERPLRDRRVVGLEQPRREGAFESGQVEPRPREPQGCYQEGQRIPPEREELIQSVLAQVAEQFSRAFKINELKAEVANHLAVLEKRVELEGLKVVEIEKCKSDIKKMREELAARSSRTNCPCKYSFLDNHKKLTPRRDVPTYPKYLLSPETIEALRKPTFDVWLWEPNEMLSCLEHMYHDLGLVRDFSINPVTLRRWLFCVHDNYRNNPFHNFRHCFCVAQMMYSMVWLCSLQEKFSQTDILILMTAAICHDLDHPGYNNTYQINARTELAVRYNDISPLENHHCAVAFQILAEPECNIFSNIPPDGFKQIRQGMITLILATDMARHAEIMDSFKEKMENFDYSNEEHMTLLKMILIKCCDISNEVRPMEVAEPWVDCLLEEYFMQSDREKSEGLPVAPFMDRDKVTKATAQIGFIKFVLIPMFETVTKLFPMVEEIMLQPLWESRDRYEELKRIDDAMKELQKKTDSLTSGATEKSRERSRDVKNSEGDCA

What does the source list for `CC(C)Cn1c(=O)n(C)c(=O)c2[nH]cnc21` [IBMX]?
inhibition of murine PDE9A (Murine PDE9A): not inhibited; inhibition on the isolated enzyme (human PDE9A): no inhibition
